# From PubChem BioAssay AID1963826 (Molecular Pharmacology Branch, DTP, NCI, 2024)
# pIC50: −log10 of the molar value.
# Tested on: 926638-142-R-J1-PDC complex spheroid viability
# Experiment: Anticancer human tumor 926638-142-R-J1-PDC patient-derived endometrial carcinoma cell line growth inhibition [POLQ]
# Details: for pIC50: curve of first compound; for viability, T/C: stronger effect = lower value
# How it was run: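 Complex spheroid viability model combining PDC tumour cells with endothelial (HUVEC) and MSC stromal cells. Novobiocin, ART-558 or RP6685 were tested singly and in combination with standard and investigational anticancer drugs. Each was titrated in half-log steps from near clinical Cmax, or from 10 microM where Cmax was unknown.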
# [1] = second compound 0.0316 µM, first compound 0.0316 µM
# [2] = second compound 0.0316 µM, first compound 0.1 µM
# [3] = second compound 0.1 µM, first compound 0.0316 µM
# [4] = second compound 0.1 µM, first compound 0.1 µM
# [5] = second compound 0.316 µM, first compound 0.0316 µM
# [6] = second compound 0.316 µM, first compound 0.1 µM
# [7] = second compound 1 µM, first compound 0.0316 µM
# [8] = second compound 1 µM, first compound 0.1 µM
# [9] = second compound 3.16 µM, first compound 0.0316 µM
# [10] = second compound 3.16 µM, first compound 0.1 µM
# [11] = second compound 10 µM, first compound 0.0316 µM
# [12] = second compound 10 µM, first compound 0.1 µM
# [13] = second compound 0.0316 µM, first compound 0.316 µM
# [14] = second compound 0.0316 µM, first compound 1 µM
# [15] = second compound 0.0316 µM, first compound 3.16 µM
# [16] = second compound 0.0316 µM, first compound 10 µM
# [17] = second compound 0.1 µM, first compound 0.316 µM
# [18] = second compound 0.1 µM, first compound 1 µM
# [19] = second compound 0.1 µM, first compound 3.16 µM
# [20] = second compound 0.1 µM, first compound 10 µM
# [21] = second compound 0.316 µM, first compound 0.316 µM
# [22] = second compound 0.316 µM, first compound 1 µM
# [23] = second compound 0.316 µM, first compound 3.16 µM
# [24] = second compound 0.316 µM, first compound 10 µM
# [25] = second compound 1 µM, first compound 0.316 µM
# [26] = second compound 1 µM, first compound 1 µM
# [27] = second compound 1 µM, first compound 3.16 µM
# [28] = second compound 1 µM, first compound 10 µM
# [29] = second compound 3.16 µM, first compound 0.316 µM
# [30] = second compound 3.16 µM, first compound 1 µM
# [31] = second compound 3.16 µM, first compound 3.16 µM
# [32] = second compound 3.16 µM, first compound 10 µM
# [33] = second compound 10 µM, first compound 0.316 µM
# [34] = second compound 10 µM, first compound 1 µM
# [35] = second compound 10 µM, first compound 3.16 µM
# [36] = second compound 10 µM, first compound 10 µM
# 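Further: spheroids exposed to drugs for one week before readout.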
# 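Wherever viability, T/C is given: percent viability relative to DMSO vehicle control wells set as 100%.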
compound,measurement,setting,value
CC[C@@]1(O)C(=O)OCc2c1cc1n(c2=O)Cc2cc3c(CN(C)C)c(O)ccc3nc2-1 + COC1C(OC(N)=O)C(O)C(Oc2ccc3c(O)c(NC(=O)c4ccc(O)c(CC=C(C)C)c4)c(=O)oc3c2C)OC1(C)C,pIC50,second compound 0.0316 µM,< 7.00
same,pIC50,second compound 0.1 µM,7.06
same,pIC50,second compound 0.316 µM,< 7.00
same,pIC50,second compound 1 µM,7.18
same,pIC50,second compound 3.16 µM,7.01
same,pIC50,second compound 10 µM,7.10
same,"viability, T/C","second compound 0.0316 µM, first compound 0.000316 µM",102%
same,"viability, T/C","second compound 0.0316 µM, first compound 0.001 µM",92.5%
same,"viability, T/C","second compound 0.0316 µM, first compound 0.00316 µM",85.7%
same,"viability, T/C","second compound 0.0316 µM, first compound 0.01 µM",72.3%
same,"viability, T/C",[1],70.9%
same,"viability, T/C",[2],47.7%
same,"viability, T/C","second compound 0.1 µM, first compound 0.000316 µM",80.4%
same,"viability, T/C","second compound 0.1 µM, first compound 0.001 µM",105%
same,"viability, T/C","second compound 0.1 µM, first compound 0.00316 µM",80.4%
same,"viability, T/C","second compound 0.1 µM, first compound 0.01 µM",75.7%
same,"viability, T/C",[3],72.1%
same,"viability, T/C",[4],46.6%
same,"viability, T/C","second compound 0.316 µM, first compound 0.000316 µM",107%
same,"viability, T/C","second compound 0.316 µM, first compound 0.001 µM",106%
same,"viability, T/C","second compound 0.316 µM, first compound 0.00316 µM",77.9%
same,"viability, T/C","second compound 0.316 µM, first compound 0.01 µM",65.9%
same,"viability, T/C",[5],76.2%
same,"viability, T/C",[6],54.6%
same,"viability, T/C","second compound 1 µM, first compound 0.000316 µM",83.4%
same,"viability, T/C","second compound 1 µM, first compound 0.001 µM",70.5%
same,"viability, T/C","second compound 1 µM, first compound 0.00316 µM",75.8%
same,"viability, T/C","second compound 1 µM, first compound 0.01 µM",73.2%
same,"viability, T/C",[7],60.8%
same,"viability, T/C",[8],43.5%
same,"viability, T/C","second compound 3.16 µM, first compound 0.000316 µM",94.2%
same,"viability, T/C","second compound 3.16 µM, first compound 0.001 µM",93.7%
same,"viability, T/C","second compound 3.16 µM, first compound 0.00316 µM",82.5%
same,"viability, T/C","second compound 3.16 µM, first compound 0.01 µM",83.5%
same,"viability, T/C",[9],72.9%
same,"viability, T/C",[10],48.6%
same,"viability, T/C","second compound 10 µM, first compound 0.000316 µM",84.8%
same,"viability, T/C","second compound 10 µM, first compound 0.001 µM",88.8%
same,"viability, T/C","second compound 10 µM, first compound 0.00316 µM",81.1%
same,"viability, T/C","second compound 10 µM, first compound 0.01 µM",71.1%
same,"viability, T/C",[11],73.8%
same,"viability, T/C",[12],44.2%
O=c1[nH]cc(F)c(=O)[nH]1 + COC1C(OC(N)=O)C(O)C(Oc2ccc3c(O)c(NC(=O)c4ccc(O)c(CC=C(C)C)c4)c(=O)oc3c2C)OC1(C)C,pIC50,second compound 0.0316 µM,< 5.00
same,pIC50,second compound 0.1 µM,< 5.00
same,pIC50,second compound 0.316 µM,< 5.00
same,pIC50,second compound 1 µM,< 5.00
same,pIC50,second compound 3.16 µM,< 5.00
same,pIC50,second compound 10 µM,< 5.00
same,"viability, T/C",[1],124%
same,"viability, T/C",[2],110%
same,"viability, T/C",[13],94.1%
same,"viability, T/C",[14],101%
same,"viability, T/C",[15],98.4%
same,"viability, T/C",[16],94.1%
same,"viability, T/C",[3],106%
same,"viability, T/C",[4],90.8%
same,"viability, T/C",[17],104%
same,"viability, T/C",[18],90.4%
same,"viability, T/C",[19],103%
same,"viability, T/C",[20],71%
same,"viability, T/C",[5],125%
same,"viability, T/C",[6],105%
same,"viability, T/C",[21],87.3%
same,"viability, T/C",[22],84.1%
same,"viability, T/C",[23],98.2%
same,"viability, T/C",[24],82.7%
same,"viability, T/C",[7],98.3%
same,"viability, T/C",[8],106%
same,"viability, T/C",[25],90.1%
same,"viability, T/C",[26],79.6%
same,"viability, T/C",[27],79.3%
same,"viability, T/C",[28],75.4%
same,"viability, T/C",[9],102%
same,"viability, T/C",[10],85.9%
same,"viability, T/C",[29],90.6%
same,"viability, T/C",[30],86.9%
same,"viability, T/C",[31],79.5%
same,"viability, T/C",[32],83.6%
same,"viability, T/C",[11],104%
same,"viability, T/C",[12],96.6%
same,"viability, T/C",[33],77.1%
same,"viability, T/C",[34],86.6%
same,"viability, T/C",[35],114%
same,"viability, T/C",[36],83.4%
COc1cc(C2c3cc4c(cc3C(OC3OC5COC(C)OC5C(O)C3O)C3COC(=O)C23)OCO4)cc(OC)c1O (stereo not drawn) + COC1C(OC(N)=O)C(O)C(Oc2ccc3c(O)c(NC(=O)c4ccc(O)c(CC=C(C)C)c4)c(=O)oc3c2C)OC1(C)C,pIC50,second compound 0.0316 µM,< 5.00
same,pIC50,second compound 0.1 µM,< 5.00
same,pIC50,second compound 0.316 µM,< 5.00
same,pIC50,second compound 1 µM,< 5.00
same,pIC50,second compound 3.16 µM,< 5.00
same,pIC50,second compound 10 µM,< 5.00
same,"viability, T/C",[1],86.8%
same,"viability, T/C",[2],79%
same,"viability, T/C",[13],78.1%
same,"viability, T/C",[14],78.4%
same,"viability, T/C",[15],70.1%
same,"viability, T/C",[16],56.2%
same,"viability, T/C",[3],95%
same,"viability, T/C",[4],80.6%
same,"viability, T/C",[17],83.1%
same,"viability, T/C",[18],62.7%
same,"viability, T/C",[19],57.5%
same,"viability, T/C",[20],57.7%
same,"viability, T/C",[5],88.2%
same,"viability, T/C",[6],98.7%
same,"viability, T/C",[21],75.7%
same,"viability, T/C",[22],79.3%
same,"viability, T/C",[23],66%
same,"viability, T/C",[24],64.6%
same,"viability, T/C",[7],84.1%
same,"viability, T/C",[8],85.8%
same,"viability, T/C",[25],79%
same,"viability, T/C",[26],61.6%
same,"viability, T/C",[27],70.9%
same,"viability, T/C",[28],55.6%
same,"viability, T/C",[9],82%
same,"viability, T/C",[10],88.4%
same,"viability, T/C",[29],83.2%
same,"viability, T/C",[30],80.2%
same,"viability, T/C",[31],71.2%
same,"viability, T/C",[32],60.9%
same,"viability, T/C",[11],81.8%
same,"viability, T/C",[12],75.3%
same,"viability, T/C",[33],78.1%
same,"viability, T/C",[34],74.9%
same,"viability, T/C",[35],68.8%
same,"viability, T/C",[36],55%
CC(C)n1c(=O)n(C)c2cnc3cc(F)c(-c4ccc(OCCCN5CCCCC5)nc4)cc3c21 + Nc1ccc(C#CCN(C(=O)Cc2ncc(C(F)(F)F)cc2C(F)(F)F)c2ccc(F)cc2)nn1,pIC50,second compound 0.0316 µM,< 5.00
same,pIC50,second compound 0.1 µM,< 5.00
same,pIC50,second compound 0.316 µM,< 5.00
same,pIC50,second compound 1 µM,< 5.00
same,pIC50,second compound 3.16 µM,< 5.00
same,pIC50,second compound 10 µM,< 5.00
same,"viability, T/C",[1],105%
same,"viability, T/C",[2],98%
same,"viability, T/C",[13],106%
same,"viability, T/C",[14],107%
same,"viability, T/C",[15],95%
same,"viability, T/C",[16],73.6%
same,"viability, T/C",[3],120%
same,"viability, T/C",[4],103%
same,"viability, T/C",[17],95.6%
same,"viability, T/C",[18],106%
same,"viability, T/C",[19],90.1%
same,"viability, T/C",[20],74.6%
same,"viability, T/C",[5],96.3%
same,"viability, T/C",[6],99.2%
same,"viability, T/C",[21],96%
same,"viability, T/C",[22],93.9%
same,"viability, T/C",[23],84.5%
same,"viability, T/C",[24],65.4%
same,"viability, T/C",[7],104%
same,"viability, T/C",[8],106%
same,"viability, T/C",[25],84.7%
same,"viability, T/C",[26],90%
same,"viability, T/C",[27],83%
same,"viability, T/C",[28],73.7%
same,"viability, T/C",[9],93.5%
same,"viability, T/C",[10],84.7%
same,"viability, T/C",[29],93%
same,"viability, T/C",[30],93.8%
same,"viability, T/C",[31],83.4%
same,"viability, T/C",[32],71.2%
same,"viability, T/C",[11],73.6%
same,"viability, T/C",[12],85.6%
same,"viability, T/C",[33],97.2%
same,"viability, T/C",[34],96.1%
same,"viability, T/C",[35],86.3%
same,"viability, T/C",[36],67.1%
